Experiments:
[1] = tested on: anti-ApoA-I antibodies in plasma samples from three different patients; assay: Competition ELISA with plasma of three individual anti-ApoA-I-positive patients; format: binding, human; settings: preincubated 2 h at room temperature with peptide, n = 3 (Fig 3)
Experimental: We next performed ELISA assays using plasma samples from three different anti-ApoA-I autoantibody-positive patients from the cohort pre-incubated with Peptide F, a scrambled version of Peptide F (Table 1), or the stapled peptide F3L1 prior to addition to wells coated with ApoA-I (Fig 3).
Plasma samples were preincubated (2 h, room temperature) with peptides at the indicated concentrations prior to addition to assay wells. Percent maximal ELISA signals were calculated as 100 × ([signal in well]-[mean background signal (uncoated well)])/ ([mean maximal signal (no peptide)]-[mean background signal]). Results are expressed as mean ± SD (n = 3).

[2] = CD spectroscopy (alpha-helical content); format: physicochemical; settings: 100 μM peptide in water with 1.25% trifluoroethanol, 20°C (Fig 2)
Experimental: Experiments were carried out in 0.1 cm quartz cell using a Jasco J-710 spectrometer with 100 μM peptide solutions (1.25% trifluoroethanol in water) at 20°C.
Fig 2 CD spectroscopy of peptide F3L1 indicates increased alpha-helical content. CD spectra of Peptide F and F3L1 were measured at 100μM concentration in water containing 1.25% trifluoroethanol.

[3] = tested on: human monocyte-derived macrophages; assay: Anti-ApoA-I IgG-mediated IL-6 and TNF-α release from human monocyte-derived macrophages; format: cell-based
Experimental: Human monocytes were isolated from buffy coats from healthy donors at the Geneva University Hospitals Blood Transfusion Center and differentiated into macrophages by 24 h incubation with IFN-γ (500 U/ml) in complete RPMI-1640 culture medium (10% heat-inactivated FCS, 50 μg/ml streptomycin, 50 U/ml penicillin, 2 mM L-glutamine), as previously described. Assays of anti-ApoA-I IgG-mediated release of IL-6 and TNF-α from human monocyte-derived macrophages was carried out as described previously using a previously determined optimal concentration of polyclonal goat anti-ApoA-I IgG (40 μg/ml). Endotoxin contamination in the assay was excluded using the limulus amebocyte lysate Endochrome assay. Where indicated, anti-ApoA-I IgG was pre-incubated with peptide […] (1 mg/mL) for 2 h at room temperature prior addition to the cells. Each experiment was performed on cells from […] different healthy blood donors. […] We next used a Luminex assay to measure the capacity of peptide […] to inhibit endotoxin-free anti-ApoA-I IgG-mediated proinflammatory cytokine release in human monocyte-derived macrophages (Fig 5a and 5b). As expected from previously published work, anti-ApoA-I IgG elicited a significant increase in production of both in IL-6 and TNF-α when compared to control IgG (Ctl IgG; p<0.0001 for both cytokines). […] We were unable to measure the inhibitory activity of intact purified and delipidated ApoA-I in this assay because traces of endotoxin elicit significant levels of background cytokine secretion (NV and SP, unpublished observations).  Fig 5 Peptide […] inhibits anti-ApoA-I IgG-mediated release of proinflammatory cytokines from cultured human monocyte-derived macrophages. Release of proinflammatory cytokines TNF-α (a) IL-6 (b) from human monocyte-derived macrophages induced by endotoxin-free goat polyclonal anti-ApoA-I IgG was determined with or without preincubation (2 h at room temperature) of the anti-ApoA-I IgG with peptide […] (1 mg/mL) and the corresponding scrambled peptide (Scr Pept). […] Anti-ApoA-I IgG was incubated with the indicated […] concentrations (preincubation 2 h at room temperature) prior to addition to cultured human monocyte-derived macrophages. Levels of proinflammatory cytokines were determined after 24 h culture. Experiments were repeated using cells from three different healthy donors, with results expressed as median, interquartile range (IQR) and range.

RAW cells = assay: Anti-ApoA-I IgG-induced TNF-α release in RAW mouse macrophage cell line; format: cell-based; settings: anti-ApoA-I IgG 100 μg/ml preincubated 2 h with peptide 100 to 0.06 μg/ml; 24 h stimulation; ELISA; n = 3 (Fig 7)
Experimental: Raw cells were seeded in 96-well plates at 2 × 10^5 cells/well in DMEM culture medium (10% heat-inactivated FCS, 50 μg/ml streptomycin, 50 U/ml penicillin) for 24 h. Anti-Apo-A1 IgG (100 μg/ml) were incubated with peptides across a concentration range from 100 μg/ml to 0.06 μg/ml for 2 h at room temperature prior addition to cells. After 24 h stimulation, mouse TNF-α was quantified in the cell supernatants by ELISA according to manufacturer’s instructions (R&D system, MN).
Fig 7 Comparing the inhibitory potency of Peptide F and F3L1 on anti-ApoA-I IgG-induced TNF-α. Anti-ApoA-I IgG was incubated with the indicated peptide concentrations (preincubation 2 h at room temperature) prior to addition to cultured RAW cells. Levels of proinflammatory cytokines (TNF-α) were determined after 24 h culture. Mean levels (n = 3) are shown with error bars indicating the range.

[4] = anti-ApoA-I IgG 40 μg/ml preincubated 2 h at room temperature with peptide 1 mg/mL (342 μM), nine donors, Luminex

For “Ac-GLLPVLESFKVSFLSALEEYTKKLNT-NH2 (also: sidechain bridge or staple (positions not given here)) [Peptide F3L1, stapled version of Peptide F with a Glu-Lys lactam bridge]”, the “inhibition of binding of anti-ApoA-I IgG to immobilized ApoA-I” value [1] was “consistently improved binding inhibition with respect to Peptide F”, the “alpha-helical content by CD” value [2] was “increased alpha-helical content compared to the parent molecule” and the “median IL-6 production” value [3, 4] was 19.2 pg/mL. For the same substance, the “median TNF-α production” value [3, 4] was 48.4 pg/mL, the “inhibition of anti-ApoA-I IgG-induced TNF-α and IL-6 release” value ([3]; peptide preincubated with anti-ApoA-I IgG 2 h at room temperature, highest concentration 1 mg/mL (Fig 5, 6)) was “dose-dependent manner” and the “cytokine production by peptide compared to control IgG” value ([3]; peptide without anti-ApoA-I IgG, trend for TNF-α, p = 0.05) was “devoid of significant biological activity”. For the same substance, the “inhibitory potency on anti-ApoA-I IgG-induced TNF-α” value (RAW cells) was “clearly a more potent inhibitor than Peptide F”.
